Laboratory results: ChEMBL document CHEMBL5154799, “Discovery of a Novel Stilbene Derivative as a Microtubule Targeting Agent Capable of Inducing Cell Ferroptosis” (J Med Chem, 2022)
pIC50: −log10 of the molar value. The source made the active and inactive calls. No cut-off for these calls is given here.

What was measured:
[1] = system: A549; test: Cell cycle arrest in human A549 cells assessed as downregulation of Cdc2 expression at 5 to 20 nM incubated for 24 to 48 hrs by Western blot analysis; type: functional, cell-based; conditions: dose 5-20 nM, time 24-48 hrs
[2] = Resistance index, ratio of IC50 for antiproliferative activity against human vincristine-resistant HCT-8/VCR cells to IC50 for antiproliferative activity against HCT-8 cells; type: functional
[3] = target: T1, Tubulin (Homo sapiens) (UniProt P68371+Q9H4B7+P0DPH7+P68366+Q13509+Q71U36+P04350+Q3ZCM7+P07437+P68363+Q9BQE3+Q6PEY2+Q13885+Q9BVA1+Q9BUF5); test: Inhibition of [3H]colchicine binding to tubulin (unknown origin) at 5 uM by competitive binding assay relative to control; type: protein-complex assay
[4] = Toxicity in athymic nude BALB/c mouse assessed as change in body weight at 10 mg/kg, ip measured for 30 days; type: organism-based; conditions: in vivo, 720 h, time 30 day
[5] = system: HCT-8; test: Antiproliferative activity against human vincristine-resistant HCT-8/VCR cells assessed as cell viability incubated for 48 hrs by MTT assay; type: functional, cell-based; conditions: HCT-8, 48 h
[6] = system: A549; test: Cell cycle arrest in human A549 cells assessed as increase in accumulation in G2/M phase at 5 to 20 nM by PI staining based flow cytometry analysis; type: functional; conditions: dose 5-20 nM, time 24-48 hrs, TDE = time-dependent effect
[7] = system: A549; test: Induction of ferroptosis in human A549 cells assessed as accumulation of superoxide anions incubated for 24 hrs by DCFH-DA staining based fluorescence microscopy; type: functional, cell-based; conditions: dose 5-10 nM, DDE = dose-dependent effect
[8] = target: T1, Tubulin (Homo sapiens); test: Inhibition of [3H]colchicine binding to tubulin (unknown origin) at 0.3725 uM by competitive binding assay relative to control; type: protein-complex assay
[9] = Toxicity in human A549 cells xenografted in athymic nude BALB/c nude mouse assessed as morphological changes in kidney at 10 mg/kg, ip measured after 30 days by H and E staining based histological analysis; type: organism-based; conditions: in vivo, 720 h, time 30 day
[10] = AUC (0 to t) in ICR mouse at 1 mg/kg, iv single administration measured for 24 hrs post treatment by LC-MS/MS analysis; type: ADME, organism-based; conditions: in vivo
[11] = target: T1, Tubulin (Homo sapiens); test: Inhibition of tubulin polymerization (unknown origin) by microplate reader analysis; type: protein-complex assay; conditions: dose 5-0.16 µM, DDE = dose-dependent effect
[12] = system: A549; test: In vivo antitumor activity against human A549 cells xenografted in athymic nude BALB/c mouse assessed as tumor weight at 10 mg/kg measured after 30 days (reference value: 1 gram); type: functional; conditions: time 30 day
[13] = system: A2780; test: Antiproliferative activity against human A2780 cells assessed as inhibition of cell proliferation incubated for 2 hrs by CCK-8 assay; type: functional, cell-based; conditions: DDE = dose-dependent effect
[14] = Cytotoxicity against human MCF-10A cells assessed as reduction in cell viability; type: toxicity, cell-based
[15] = Selectivity ratio of IC50 for cytotoxicity against human L02 cells assessed as reduction in cell viability to IC50 for cytotoxicity against human A549 cells assessed as reduction in cell viability; type: toxicity, cell-based; conditions: L02 cells versus A549 cells
[16] = system: A549; test: Antiproliferative activity against human A549 cells assessed as inhibition of cell proliferation incubated for 2 hrs by CCK-8 assay; type: functional, cell-based; conditions: DDE = dose-dependent effect
[17] = system: LoVo; test: Antiproliferative activity against human LoVo cells assessed as inhibition of cell proliferation incubated for 2 hrs by CCK-8 assay; type: functional, cell-based; conditions: DDE = dose-dependent effect
[18] = system: A549; test: Antiproliferative activity against human adriamycin-resistant A549/ADR cells assessed as cell viability incubated for 48 hrs by MTT assay; type: functional, cell-based; conditions: A549, 48 h
[19] = system: SMMC-7721; test: Antiproliferative activity against human SMMC-7721 cells assessed as inhibition of cell proliferation incubated for 2 hrs by CCK-8 assay; type: functional, cell-based; conditions: DDE = dose-dependent effect
[20] = Toxicity in athymic nude BALB/c mouse assessed as body weight loss at 10 mg/kg, ip measured for 30 days; type: organism-based; conditions: in vivo, 720 h, time 30 day
[21] = system: A549; test: Cell cycle arrest in human A549 cells assessed as downregulation of Cdc25C expression at 5 to 20 nM incubated for 24 to 48 hrs by Western blot analysis; type: functional, cell-based; conditions: dose 5-20 nM, time 24-48 hrs
[22] = system: A549; test: Resistance index, ratio of IC50 for antiproliferative activity against human adriamycin-resistant A549/ADR cells to IC50 for antiproliferative activity against human A549 cells; type: functional
[23] = system: A549; test: Antiproliferative activity against human A549 cells assessed as cell viability incubated for 48 hrs by MTT assay; type: functional, cell-based; conditions: A549, 48 h
[24] = AUC (0 to infinity) in ICR mouse at 1 mg/kg, iv single administration measured for 24 hrs post treatment by LC-MS/MS analysis; type: ADME, organism-based; set-up: time 24 hrs, dose 1 mg/kg, route iv; conditions: in vivo
[25] = AUC (0 to t) in ICR mouse at 10 mg/kg, po single administration measured for 24 hrs post treatment by LC-MS/MS analysis; type: ADME, organism-based; conditions: in vivo
[26] = Cytotoxicity against HLF cells assessed as reduction in cell viability; type: toxicity, cell-based; conditions: human
[27] = system: A549; test: Induction of ferroptosis in human A549 cells assessed as accumulation of intracellular ROS incubated for 24 hrs by DCFH-DA staining based fluorescence microscopy; type: functional, cell-based; conditions: dose 5-10 nM, DDE = dose-dependent effect
[28] = Toxicity in human A549 cells xenografted in athymic nude BALB/c nude mouse assessed as morphological changes in spleen at 10 mg/kg, ip measured after 30 days by H and E staining based histological analysis; type: organism-based; conditions: in vivo, 720 h, time 30 day
[29] = system: MGC-803; test: Antiproliferative activity against human MGC-803 cells assessed as inhibition of cell proliferation incubated for 2 hrs by CCK-8 assay; type: functional, cell-based; conditions: DDE = dose-dependent effect
[30] = target: T1, Tubulin (Homo sapiens); test: Inhibition of [3H]colchicine binding to tubulin (unknown origin) at 0.075 uM by competitive binding assay relative to control; type: protein-complex assay
[31] = Toxicity in human A549 cells xenografted in athymic nude BALB/c nude mouse assessed as morphological changes in heart at 10 mg/kg, ip measured after 30 days by H and E staining based histological analysis; type: organism-based; conditions: in vivo, 720 h, time 30 day
[32] = system: A549; test: Induction of ferroptosis in human A549 cells assessed as cell swelling incubated for 24 hrs by CCK-8 assay; type: functional, cell-based
[33] = system: HeLa; test: Antiproliferative activity against human HeLa cells assessed as inhibition of cell proliferation incubated for 2 hrs by CCK-8 assay; type: functional, cell-based; conditions: DDE = dose-dependent effect
[34] = Acute oral toxicity in rat assessed as survival at 17.5 to 175 mg/kg measured over 8 hours daily for 14 days; type: organism-based; conditions: in vivo, 336 h, dose 17.5-175 mg/kg, time 14 day
[35] = MRT in ICR mouse at 10 mg/kg, po single administration measured for 24 hrs post treatment by LC-MS/MS analysis; type: ADME, organism-based; conditions: in vivo
[36] = MRT in ICR mouse at 1 mg/kg, iv single administration measured for 24 hrs post treatment by LC-MS/MS analysis; type: ADME, organism-based; conditions: in vivo
[37] = AUC (0 to infinity) in ICR mouse at 10 mg/kg, po single administration measured for 24 hrs post treatment by LC-MS/MS analysis; type: ADME, organism-based; set-up: time 24 hrs, dose 10 mg/kg, route po; conditions: in vivo
[38] = Cmax in ICR mouse at 10 mg/kg, po single administration measured for 24 hrs post treatment by LC-MS/MS analysis; type: ADME, organism-based; set-up: time 24 hrs, dose 10 mg/kg, route po; conditions: in vivo
[39] = Acute toxicity in rat assessed as median lethal dose after at 175 to 550 mg/kg for 14 days; type: organism-based; conditions: in vivo, dose 175-550 mg/kg, time 14 day

For `C=C(c1cc(OC)c(OC)c(OC)c1)c1ccc(OC)c(O)c1NC(=O)CO`, the Activity [1] was “Active”, the “Ratio IC50” value [2] was 1.75 and the inhibition [3] was 78.5%. The Activity [4] was “Non-Toxic”, the pIC50 [5] was 7.15 and the Activity [6] was “Tde”. The Activity [7] was “Dde”, the inhibition [8] was 4.07% and the Activity [9] was “Non-Toxic”. The AUCt [10] was 350.19 h/ng/mL, the inhibition [11] was “Dde” and the Activity [12] was 0.2 g. For the same molecule, the Activity [13] was “Dde”, the pIC50 [14] was 6.27 and the selectivity ratio [15] was 145. For the same molecule, the Activity [16] was “Dde”, the Activity [17] was “Dde” and the pIC50 [18] was 7.70. For the same molecule, the Activity [19] was “Dde”, the Activity [20] was “Non-Toxic” and the Activity [21] was “Active”. The “Ratio IC50” value [22] was 2, the pIC50 [23] was 8.00 and the AUC [24] was 353.02 h/ng/mL. For the same molecule, the AUCt [25] was 2432.04 h/ng/mL, the pIC50 [26] was 5.88 and the Activity [27] was “Dde”. The Activity [28] was “Non-Toxic”, the Activity [29] was “Dde” and the inhibition [30] was 16.7%. The Activity [31] was “Non-Toxic”, the Activity [32] was “Active” and the Activity [33] was “Dde”. The Activity [34] was “Non-Toxic”, the MRT [35] was 2.57 h and the MRT [36] was 0.68 h. The AUC [37] was 2463.76 h/ng/mL, the Cmax [38] was 776 ng/mL and the LD50 at 336 h [39] was 327 mg/kg.
